{
  "source": "patent USRE39420E1",
  "about": "“1,2-Diphenylpyrrole derivatives, their preparation and their therapeutic uses” (Sankyo Company, Limited, priority 1996, dated 2006)",
  "key": {"[1]": {"system": "IL-1β production in human peripheral monocytes", "assay": "Inhibitory effect on IL-1β production in LPS-stimulated human peripheral monocytes", "format": "cell-based", "conditions": "Monocyte, LPS 10 μg/ml, 20 hours", "description": "(§1) (1) Peripheral blood was collected from healthy human volunteers in the presence of heparin. After mixing it with an equal volume of phosphate-buffered saline (PBS, Nissui Pharmaceutical), the mixture was layered onto Ficoll Paque medium (Pharmacia) at the rate of 2:1 and centrifuged at 520×g at 25° C. for 20 minutes. After centrifugation, the monocyte layer was removed and suspended in RPMI 1640 (Nissui Pharmaceutical) containing 10% fetal calf serum (FCS). The monocytes were washed once with the same medium, placed in a plastic Petri dish, pre-treated with human plasma and incubated for 2 hours in the presence of 5% CO2 to cause them to adhere to the dish. After incubation, the Petri dish was washed twice with PBS to remove the non-adherent cells. Thereafter, PBS containing 5% FCS and 0.2% EDTA was added to the Petri dish and the dish was allowed to stand undisturbed for 15 minutes at 4° C. The monocytes were recovered from the dish by pipetting. The cells were finally suspended in RPMI 1640 at a concentration of 1.25×10^5 cells/ml. (2) Culture of Human Monocytes\n(§2) A 40 μl solution of the test compound and 40 μl of lipopolysaccharide (LPS; E. coli, 0.26:B6, Difco), adjusted to a final concentration of 10 μg/ml, were added to 320 μl of cell suspension. The resulting mixture was then cultured for 20 hours in the presence of 5% CO2 and the supernatant was removed at the end of cultivation to assay IL-1β and TNFα. The test compound was dissolved in dimethyl sulfoxide and diluted by a factor of 100 with FCS to reach 10 times the final concentration (the final concentrations of dimethyl sulfoxide and FCS were 0.1% and 10%, respectively).\n(§3) The amount of IL-1β was measured with a commercially available ELISA kit (Cayman), after diluting the supernatant medium by a factor of 15 or 30 with the ELISA buffer. The amount of TNFα was similarly measured by a ELISA kit (Genzyme) after diluting the supernatant by a factor of 2.\n(§4) The IC50 was calculated from the regression line determined by the inhibition rates and the concentrations of the test compound."}, "[2]": {"system": "TNFα production in human peripheral monocytes", "assay": "Inhibitory effect on TNFα production in LPS-stimulated human peripheral monocytes", "format": "cell-based", "conditions": "Monocyte, LPS 10 μg/ml, 20 hours", "description": "as §1, §2, §3, §4"}, "[3]": {"system": "yeast-inflamed pain in rats", "assay": "Analgesic effect on yeast-inflamed pain in rats (Randall-Selitto method)", "format": "in vivo, Wistar-Imamichi rats", "conditions": "Rattus norvegicus, oral, pain threshold 0.5, 1 and 2 hours after administration, read-out: Efficacy Rate (No. of animals in which drug was effective/No. of animals used in test) (converted)", "summary_of_the_method": "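Male Wistar-Imamichi rats were fasted 16 h and given compound orally in 0.5% tragacanth. Paw inflammation was induced by subcutaneous 20% brewer's yeast, and pressure pain threshold was measured from 4.5 h at 0.5, 1 and 2 h. An animal counted as responding if its threshold exceeded twice the control mean, and efficacy rate followed Blake's method.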"}, "[4]": {"system": "scald-induced Pain in rats", "assay": "Scald-induced pain test", "format": "in vivo, Wistar-Imamichi rats", "conditions": "oral; pain response time, mean of 1 and 2 hours after dosing", "description": "The test was conducted in accordance with the method of Iizuka and Tanaka [Jpn. J. Pharmacol. 70, 697, (1967)]. The test compound was administered in the same manner as in Experiment 3. Male Wistar-Imamichi rats (4-5 week old, body weights: approximately 100 g) were used after fasting for 16 hours. The right hind foot of the animal was immersed in hot water at 57° C. for 6 seconds to induce scald under ether-anesthesia. Two hours later, the scald foot of the rat was irritated by immersing in hot water at 40° C. for 5 seconds, and the animal was returned to the cage. […] Lifting up the scalded foot or licking it without coming in contact with the metal cage were considered to be pain responses. Pain response time was determined as the total time of the pain response during the 30-second observation period. […] Pain response time was again measured 1 and 2 hours after dosing and the mean value was determined. Using the mean values, inhibition rates were calculated relative to the control group. ID50 was calculated from the regression line determined by the inhibition rates and the doses."}, "yeast-induced fever": {"system": "yeast-induced fever", "assay": "Antipyretic effect on yeast-induced fever", "format": "in vivo, Wistar-Imamichi rats", "conditions": "Dose: 0.4 mg/kg, oral; mean of 1 and 2 hours after dosing", "description": "The method of Roszkowski et al. [J. Pharmacol. Exp. Ther. 179, 114, (1971)] was slightly modified to perform the test. The test compound was administered in the same manner as in Experiment 3. Male Wistar-Imamichi rats (6 week old, body weights: approximately 120 g) were used in the test. Yeast (Brewer's yeast, Sigma) was suspended in physiological saline to a concentration of 25%, finely crushed in an agate mortar, and injected subcutaneously into the backs of the rats under ether-anesthesia at a volume of 2 ml/rat. The rats were fasted after the injection of yeast. On the following day (19 hours after the yeast injection), a catheter-type thermistor thermometer (Japan Koden, MGA III) was inserted approximately 5 cm into the rectum to measure the temperature of the animals. […] Rectal temperatures were measured 1 and 2 hours after administration of the test compound, and fever temperature was calculated by subtracting the normal temperature of healthy animals measured simultaneously. Inhibition rate of the group treated with the compound relative to the control group was calculated by using the mean value at 1 and 2 hours after dosing."}},
  "data": [
    {"compound": "Cc1ccc(-c2ccccc2)n1-c1ccc(S(N)(=O)=O)cc1", "note": "[Compound A, 5-methyl-2-phenyl-1-(4-sulfamoylphenyl)pyrrole, reference compound]", "values": [
      {"measurement": "inhibition at 10 µM", "setting": "[1]", "result": 24.2, "unit": "%"},
      {"measurement": "inhibition at 10 µM", "setting": "[2]", "result": 13.9, "unit": "%"}
    ]},
    {"compound": "COc1ccc(-c2cc(C)cn2-c2ccc(S(N)(=O)=O)cc2)cc1", "note": "[Example 52, 2-(4-Methoxyphenyl)-4-methyl-1-(4-sulfamoylphenyl)pyrrole]", "values": [
      {"measurement": "responders at 12.5 mg/kg", "setting": "[3]", "result": 100, "unit": "%"},
      {"measurement": "ID50", "setting": "[4]", "result": 1.1, "unit": "mg/kg"},
      {"measurement": "Inhibition Rate (%)", "setting": "yeast-induced fever", "result": 82, "unit": "%"}
    ]}
  ]
}
